Source: publication PMC7179653 (Antimicrobial Agents and Chemotherapy, 2020)
Like-named read-outs stand apart in the source and are kept apart here.

Columns and labels:
[1] = SAD study: single-dose nacubactam pharmacokinetics (plasma/urine, LC-MS/MS, noncompartmental); format: in vivo; conditions: human, iv; for AUC(0-inf) / AUC(0-t) / Cmax / Tmax / k el / clearance / Vd / half-life: plasma
Protocol: (§1) Study treatments were administered as 30-min (SAD study) or 90-min (MAD study) i.v. infusions, the latter to investigate the pharmacokinetics using a longer infusion time, which is commonly used to increase the time above the MIC of β-lactams ([15]). The choice of a 90-min infusion time for the MAD study was dictated by the stability and toxicology data available at the time the study was being designed. […] Safety assessments included monitoring of AEs, laboratory safety tests (hematology, serum chemistry, and urinalysis), 12-lead ECG (discrete recordings and 24-h Holter recording), and vital signs (blood pressure, pulse rate, and body temperature). In the SAD study, safety assessments were performed predose at screening, at day 1, postdose periodically on days 1, 2, and 7 (follow-up), and at early withdrawal, if relevant. […] In the MAD study, safety assessments were done predose at screening, at day 2, postdose periodically on days 1, 2, 4, 7, and 8, on days 13 to 15 (follow-up), and at early withdrawal, if relevant. […] On all other days, a single predose sample was collected for pharmacokinetic evaluation prior to the morning infusion. Blood was collected into lithium-heparin tubes and stored at a nominal –80°C temperature until analysis.

[2] = MAD study: nacubactam pharmacokinetics, multiple doses and single dose alone or with meropenem; format: in vivo, human; conditions: for CL renal at 7 days / CL renal: plasma and urine; for AUC(0-t): read-out: AUC0–8h; for Tmax at 7 days: day 7, n = 6, median (range)
Protocol: as §1, with “The MAD study consisted of three parts (Fig. 1). […] Participants were enrolled in two sequential cohorts (cohort 1, followed by cohort 2). […] Participants were also enrolled in two sequential cohorts (cohort 3, followed by cohort 4). […] A washout period of approximately 24 h between treatments was provided. Study” for “Study”

[3] = 1000 mg, single i.v. dose 1,000 mg, n = 6, mean (SD)
[4] = 2000 mg, single i.v. dose 2,000 mg, n = 6, mean (SD)
[5] = single i.v. dose 50 mg, n = 6, mean (SD)
[6] = single i.v. dose 150 mg, n = 6, mean (SD)
[7] = single i.v. dose 500 mg, n = 6, mean (SD)
[8] = MAD part 3, single dose (day 1 or 2) nacubactam 2,000 mg alone, geometric mean (%CV)
[9] = MAD part 3, single dose (day 3) nacubactam 2,000 mg plus meropenem 2,000 mg, geometric mean (%CV)
[10] = human, plasma, intravenous, 1000 mg, MAD part 1, 1,000 mg q8h for 7 days, day 7, n = 6, geometric mean (%CV)
[11] = human, plasma, intravenous, 2000 mg
[12] = human, plasma, intravenous, 2000 mg, MAD part 1, 2,000 mg q8h for 7 days, day 7, n = 6, geometric mean (%CV)
[13] = human, plasma, intravenous, 2000 mg, MAD part 3, single dose (day 1 or 2) nacubactam 2,000 mg alone, geometric mean (%CV)
[14] = human, plasma, intravenous, 4000 mg, MAD part 2, 4,000 mg q8h for 7 days, day 9, n = 6, geometric mean (%CV)
[15] = human, plasma, intravenous, MAD part 3, single dose (day 3) nacubactam 2,000 mg plus meropenem 2,000 mg, geometric mean (%CV)

Compound `NCCONC(=O)[C@@H]1CC[C@@H]2CN1C(=O)N2OS(=O)(=O)O` [Nacubactam] has a CL renal ([1]; plasma and urine, single i.v. doses, 6.86 ± 0.64 to 9.66 ± 1.66, read-out: mean CLR (renal clearance), range over the five dose levels) of 114 to 161 mL/min, an AUC(0-inf) [1, 3] of 143 µg·h/mL and an AUC(0-t) [1, 3] of 142 µg·h/mL. For the same compound, the Cmax [1, 3] was 72 µg/mL, the Tmax [1, 3] was 0.5 h and the k el [1, 3] was 9.72e-05 s⁻¹. For the same compound, the clearance ([1]; 1000 mg, single i.v. dose 1,000 mg, n = 6, mean (SD), read-out: CL (converted)) was 117 mL/min, the Vd ([1]; 1000 mg, single i.v. dose 1,000 mg, n = 6, mean (SD), read-out: Vss) was 17 L and the half-life ([1]; 1000 mg, single i.v. dose 1,000 mg, n = 6, mean (SD), read-out: t1/2 (converted)) was 2.05 h. It also gave an AUC(0-inf) [1, 4] of 229 µg·h/mL, an AUC(0-t) [1, 4] of 229 µg·h/mL and a Cmax [1, 4] of 112 µg/mL. The Tmax [1, 4] was 0.5 h, the k el [1, 4] was 8.61e-05 s⁻¹ and the clearance ([1]; 2000 mg, single i.v. dose 2,000 mg, n = 6, mean (SD), read-out: CL (converted)) was 146 mL/min. For the same compound, the Vd ([1]; 2000 mg, single i.v. dose 2,000 mg, n = 6, mean (SD), read-out: Vss) was 20.6 L, the half-life ([1]; 2000 mg, single i.v. dose 2,000 mg, n = 6, mean (SD), read-out: t1/2 (converted)) was 2.36 h and the AUC(0-inf) [1, 5] was 5.21 µg·h/mL. It also gave an AUC(0-t) [1, 5] of 5.08 µg·h/mL, a Cmax [1, 5] of 2.69 µg/mL and a Tmax [1, 5] of 0.54 h. It also gave a k el [1, 5] of 0.000106 s⁻¹, a clearance ([1]; single i.v. dose 50 mg, n = 6, mean (SD), read-out: CL (converted)) of 164 mL/min and a Vd ([1]; single i.v. dose 50 mg, n = 6, mean (SD), read-out: Vss) of 22.4 L. For the same compound, the half-life ([1]; single i.v. dose 50 mg, n = 6, mean (SD), read-out: t1/2 (converted)) was 1.83 h, the AUC(0-inf) [1, 6] was 16.3 µg·h/mL and the AUC(0-t) [1, 6] was 16.1 µg·h/mL. The Cmax [1, 6] was 9.02 µg/mL, the Tmax [1, 6] was 0.5 h and the k el [1, 6] was 0.000111 s⁻¹. For the same compound, the clearance ([1]; single i.v. dose 150 mg, n = 6, mean (SD), read-out: CL (converted)) was 157 mL/min, the Vd ([1]; single i.v. dose 150 mg, n = 6, mean (SD), read-out: Vss) was 20.2 L and the half-life ([1]; single i.v. dose 150 mg, n = 6, mean (SD), read-out: t1/2 (converted)) was 1.76 h. The AUC(0-inf) [1, 7] was 53.9 µg·h/mL, the AUC(0-t) [1, 7] was 53.6 µg·h/mL and the Cmax [1, 7] was 31.3 µg/mL. It also gave a Tmax [1, 7] of 0.5 h, a k el [1, 7] of 0.000108 s⁻¹ and a clearance ([1]; single i.v. dose 500 mg, n = 6, mean (SD), read-out: CL (converted)) of 156 mL/min. The Vd ([1]; single i.v. dose 500 mg, n = 6, mean (SD), read-out: Vss) was 19.6 L, the half-life ([1]; single i.v. dose 500 mg, n = 6, mean (SD), read-out: t1/2 (converted)) was 1.77 h and the clearance ([1]; single i.v. doses 50 to 2,000 mg, read-out: mean CL, range across doses) was 117 to 164 mL/min. The Vd ([1]; single i.v. doses 50 to 2,000 mg, read-out: mean Vss, range across doses) was 17 to 22.4 L, the half-life ([1]; single i.v. doses, 1.76 ± 0.17 to 2.36 ± 0.46, read-out: mean apparent terminal elimination half-life (t1/2), range across doses) was 1.76 to 2.36 h and the “Fe%0–8h (cumulative percentage of dose excreted in urine from time zero to 8 h)” value ([2]; MAD part 1, 1,000 mg q8h for 7 days, day 7, n = 6, geometric mean (%CV)) was 81.9 (1) %. For the same compound, the “Fe%0–8h (cumulative percentage of dose excreted in urine from time zero to 8 h)” value ([2]; MAD part 1, 2,000 mg q8h for 7 days, day 7, n = 6, geometric mean (%CV)) was 87.0 (11) %, the “Fe%0–8h (cumulative percentage of dose excreted in urine from time zero to 8 h)” value ([2]; MAD part 2, 4,000 mg q8h for 7 days, day 9, n = 6, geometric mean (%CV)) was 83.9 (9) % and the “Fe%0–8h (cumulative percentage of dose excreted in urine from time zero to 8 h)” value [2, 8] was 85.5 (13) %. For the same compound, the “Fe%0–24h (cumulative percentage of dose excreted in urine from time zero to 24 h)” value [2, 8] was 91.1 (10) %, the “Fe%0–8h (cumulative percentage of dose excreted in urine from time zero to 8 h)” value [2, 9] was 82.7 (12) % and the “Fe%0–24h (cumulative percentage of dose excreted in urine from time zero to 24 h)” value [2, 9] was 88.4 (11) %. For the same compound, the accumulation in plasma ([2]; following 7 days of q8h dosing) was “minimal accumulation”, the route of elimination ([2]; following single and multiple doses) was “excreted largely unchanged into urine” and the “contribution of nonrenal elimination processes on clearance” value ([2]; from difference between CL and CLR) was under 20%. It also gave a CL renal at 7 days ([2]; human, intravenous, 1000 mg, MAD part 1, 1,000 mg q8h for 7 days, day 7, n = 6, geometric mean (%CV)) of 112 mL/min, a CL renal at 7 days ([2]; human, intravenous, 2000 mg, MAD part 1, 2,000 mg q8h for 7 days, day 7, n = 6, geometric mean (%CV)) of 104 mL/min and a CL renal ([2]; human, intravenous, 2000 mg, MAD part 3, single dose (day 1 or 2) nacubactam 2,000 mg alone, geometric mean (%CV), read-out: CLR (converted)) of 142 mL/min. It also gave a CL renal at 7 days ([2]; human, intravenous, 4000 mg, MAD part 2, 4,000 mg q8h for 7 days, day 9, n = 6, geometric mean (%CV)) of 113 mL/min, a CL renal ([2]; human, intravenous, MAD part 3, single dose (day 3) nacubactam 2,000 mg plus meropenem 2,000 mg, geometric mean (%CV), read-out: CLR (converted)) of 135 mL/min and a CL renal ([2]; human, intravenous, single (1,000 to 8,000 mg) and multiple (1,000 to 4,000 mg) doses, read-out: estimated CLR, range) of 91.7 to 142 mL/min. For the same compound, the Cmax at 7 days [2, 10] was 36.6 µg/mL, the half-life [2, 10] was 2.66 h and the AUC(0-t) [2, 10] was 118 µg·h/mL. The clearance ([2]; human, plasma, intravenous, 1000 mg, MAD part 1, 1,000 mg q8h for 7 days, day 7, n = 6, geometric mean (%CV), read-out: CL (converted)) was 142 mL/min, the Vd at 7 days ([2]; human, plasma, intravenous, 1000 mg, MAD part 1, 1,000 mg q8h for 7 days, day 7, n = 6, geometric mean (%CV), read-out: Vss) was 21.9 L and the Tmax at 7 days ([2]; human, plasma, intravenous, 1000 mg, MAD part 1, 1,000 mg q8h for 7 days) was 1 h. The AUC(0-inf) [2, 11] was 225 µg·h/mL, the Cmax [2, 11] was 66 µg/mL and the Tmax [2, 11] was 1 h. It also gave a Cmax at 7 days [2, 12] of 89.6 µg/mL, a half-life [2, 12] of 2.66 h and an AUC(0-t) [2, 12] of 279 µg·h/mL. For the same compound, the clearance ([2]; human, plasma, intravenous, 2000 mg, MAD part 1, 2,000 mg q8h for 7 days, day 7, n = 6, geometric mean (%CV), read-out: CL (converted)) was 119 mL/min, the Vd at 7 days ([2]; human, plasma, intravenous, 2000 mg, MAD part 1, 2,000 mg q8h for 7 days, day 7, n = 6, geometric mean (%CV), read-out: Vss) was 16.5 L and the half-life [2, 13] was 2.63 h. It also gave an AUC(0-t) [2, 13] of 201 µg·h/mL, a clearance ([2]; human, plasma, intravenous, 2000 mg, MAD part 3, single dose (day 1 or 2) nacubactam 2,000 mg alone, geometric mean (%CV), read-out: CL (converted)) of 148 mL/min and a Tmax at 7 days ([2]; human, plasma, intravenous, 2000 mg, MAD part 1, 2,000 mg q8h for 7 days) of 1.33 h. The Vd ([2]; human, plasma, intravenous, 2000 mg, read-out: Vss) was 26.2 L, the Cmax at 7 days [2, 14] was 179 µg/mL and the half-life [2, 14] was 2.69 h. For the same compound, the AUC(0-t) [2, 14] was 496 µg·h/mL, the clearance ([2]; human, plasma, intravenous, 4000 mg, MAD part 2, 4,000 mg q8h for 7 days, day 9, n = 6, geometric mean (%CV), read-out: CL (converted)) was 134 mL/min and the Vd at 7 days ([2]; human, plasma, intravenous, 4000 mg, MAD part 2, 4,000 mg q8h for 7 days, day 9, n = 6, geometric mean (%CV), read-out: Vss) was 20.1 L. For the same compound, the half-life [2, 15] was 2.38 h, the AUC(0-t) [2, 15] was 204 µg·h/mL and the clearance ([2]; human, plasma, intravenous, MAD part 3, single dose (day 3) nacubactam 2,000 mg plus meropenem 2,000 mg, geometric mean (%CV), read-out: CL (converted)) was 149 mL/min. The clearance ([2]; human, plasma, intravenous, single (1,000 to 8,000 mg) and multiple (1,000 to 4,000 mg) doses, read-out: estimated CL, range on average) was 120 to 148 mL/min.
